Source: ChEMBL document CHEMBL1201862, “PubChem BioAssay data set” (2004)
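Following 48 hours of exposure in 96-well plates, responses at five concentrations were used to interpolate endpoints linearly. Abbreviation: GI50, concentration required for 50% inhibition of growth.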 Calls of active or inactive are those of the source. Cut-off read from the data, not from the text of the source: active = GI50 up to about 1.1 µM and inactive = higher.

What was measured:
Test in all cases: inhibition of tumour cell growth, NCI panel, 48 h
KM12 = system: KM12
K562 = system: K562
786-0 = system: 786-0
CAKI-1 = system: CAKI-1
NCI-H23 = system: NCI-H23
ACHN = system: ACHN
MOLT-4 = system: MOLT-4
UO-31 = system: UO-31
MDA-MB-435 = system: MDA-MB-435
NCI-H226 = system: NCI-H226
SNB-75 = system: SNB-75
SF-268 = system: SF-268
EKVX = system: EKVX
SN12C = system: SN12C
NCI-H460 = system: NCI-H460
HCC 2998 = system: HCC 2998
HL-60 = system: HL-60
SK-MEL-2 = system: SK-MEL-2
MDA-MB-231 = system: MDA-MB-231

Row | SMILES | GI50 (KM12) | GI50 (K562) | GI50 (786-0) | GI50 (CAKI-1) | GI50 (NCI-H23) | GI50 (ACHN) | GI50 (MOLT-4) | GI50 (UO-31) | GI50 (MDA-MB-435) | GI50 (NCI-H226) | GI50 (SNB-75) | GI50 (SF-268) | GI50 (EKVX) | GI50 (SN12C) | GI50 (NCI-H460) | GI50 (HCC 2998) | GI50 (HL-60) | GI50 (SK-MEL-2) | GI50 (MDA-MB-231)
1 | ON(CCc1ccncc1)Cc1ccccc1 | > 100 µM (inactive) | > 100 µM (inactive) | > 100 µM (inactive) | > 100 µM (inactive) | > 100 µM (inactive) | > 100 µM (inactive) | > 100 µM (inactive) | > 100 µM (inactive) | > 100 µM (inactive) | > 100 µM (inactive) | > 100 µM (inactive) | > 100 µM (inactive) | > 100 µM (inactive) | > 100 µM (inactive) | – | – | – | – | –
2 | CCOc1cc2c(cc1O)/C(=N\O)C[C@@H]1[C@@H]2CC[C@]2(C)[C@@H](O)CC[C@@H]12 | 0.168 µM (active) | < 0.0173 µM (active) | < 0.0208 µM (active) | < 0.0235 µM (active) | 0.0455 µM (active) | 0.126 µM (active) | < 0.023 µM (active) | 0.147 µM (active) | 0.011 µM (active) | 0.0817 µM (active) | < 0.01 µM (active) | < 0.031 µM (active) | 55.2 µM (inactive) | < 0.0216 µM (active) | < 0.0198 µM (active) | 2.72 µM (inactive) | < 0.0155 µM (active) | – | –
3 | N#C[C@H](C(=O)c1ccccc1F)c1nc2ccccc2s1 | 11 µM (inactive) | 27.3 µM (inactive) | 31.2 µM (inactive) | 32.5 µM (inactive) | 46.3 µM (inactive) | 49.1 µM (inactive) | 26.5 µM (inactive) | 46.8 µM (inactive) | 39.8 µM (inactive) | 21.9 µM (inactive) | 14.8 µM (inactive) | 26.9 µM (inactive) | 28 µM (inactive) | 31.6 µM (inactive) | 28.9 µM (inactive) | – | 31.3 µM (inactive) | 16.6 µM (inactive) | 35.8 µM (inactive)
4 | Cc1ccc(O)c(-c2cscn2)c1 | – | 52 µM (inactive) | 33.2 µM (inactive) | 39.3 µM (inactive) | 39.4 µM (inactive) | 32 µM (inactive) | 35.1 µM (inactive) | 22.8 µM (inactive) | 52.6 µM (inactive) | – | – | – | 32.2 µM (inactive) | 35.2 µM (inactive) | 28.5 µM (inactive) | 24.7 µM (inactive) | 1.81 µM (inactive) | 64 µM (inactive) | –
5 | COc1ccc(/N=C2\C(=N/c3ccc(OC)cc3)N(c3ccc(N(C)C)cc3)C(=S)N2c2ccc(OC)cc2)cc1 | > 100 µM (inactive) | > 100 µM (inactive) | 0.767 µM (active) | – | > 100 µM (inactive) | > 100 µM (inactive) | 0.0329 µM (active) | 3.81 µM (inactive) | > 100 µM (inactive) | > 100 µM (inactive) | – | > 100 µM (inactive) | > 100 µM (inactive) | > 100 µM (inactive) | 10.9 µM (inactive) | > 100 µM (inactive) | > 100 µM (inactive) | > 100 µM (inactive) | > 100 µM (inactive)
6 | Cc1ccc(NCc2nnc3c(-c4ccccc4)nc4ccccc4n23)cc1 | 22.8 µM (inactive) | 13 µM (inactive) | 27.9 µM (inactive) | 30.1 µM (inactive) | – | 23.9 µM (inactive) | 16 µM (inactive) | – | 29.6 µM (inactive) | 44 µM (inactive) | – | 43.6 µM (inactive) | 18.7 µM (inactive) | 32.6 µM (inactive) | 28.8 µM (inactive) | 44.6 µM (inactive) | 14.4 µM (inactive) | 24.8 µM (inactive) | 24.5 µM (inactive)
7 | CCCCOC1CC2(c3ccc(OC)cc3)C(=O)c3ccccc3N2O1 (stereo not drawn) | 62.2 µM (inactive) | 26.5 µM (inactive) | 88.1 µM (inactive) | 41.6 µM (inactive) | – | > 10 µM (inactive) | 19 µM (inactive) | > 10 µM (inactive) | – | > 10 µM (inactive) | > 100 µM (inactive) | 50.5 µM (inactive) | 40.7 µM (inactive) | > 10 µM (inactive) | > 10 µM (inactive) | – | – | 71.6 µM (inactive) | –
8 | CCc1cn2c(/C=N/N=C(N)N)c(-c3cc(C)c(Cl)cc3Cl)nc2s1 | 1.58 µM (inactive) | 1.01 µM (active) | 0.847 µM (active) | 1.27 µM (inactive) | 1.77 µM (inactive) | 1.68 µM (inactive) | – | 1.64 µM (inactive) | 1.41 µM (inactive) | 1.26 µM (inactive) | 1.55 µM (inactive) | 1.98 µM (inactive) | – | – | 1.86 µM (inactive) | – | 1.82 µM (inactive) | 1.82 µM (inactive) | 0.865 µM (active)
9 | Cc1ccnc2c1C(=O)C1=C(OC(C)(C)CC1O)C2=O (stereo not drawn) | 3.27 µM (inactive) | 2.99 µM (inactive) | 4.08 µM (inactive) | 6.01 µM (inactive) | 1.76 µM (inactive) | 5.82 µM (inactive) | 3.9 µM (inactive) | 2.2 µM (inactive) | 1.32 µM (inactive) | 6.08 µM (inactive) | – | 1.79 µM (inactive) | 5.21 µM (inactive) | 3.21 µM (inactive) | 2.9 µM (inactive) | 3.88 µM (inactive) | 2.41 µM (inactive) | 2.88 µM (inactive) | 2.97 µM (inactive)
